In patent US4743677A, “Calcitonin gene related peptide derivatives” (Toyo Jozo Co., Ltd., priority 1985, dated 1988):

Experiments:
[1] = Serum calcium level lowering effect in rats (atomic absorption spectrophotometry); type: in vivo; conditions: 80 μg/kg through tail vein, Wistar rats; for drop of serum calcium concentration compared with control group: blood at 30 and 60 minutes, control = dissolving solution only; for serum calcium concentration compared with h-CGRP administered group: versus h-CGRP 80 μg/kg
Experimental: (§1) h-CGRP, desalanyl-deamino-h-CGRP and desalanyl-[Asu^2,7 ] -h-CGRP, each 80 μg, were dissolved in 1 ml of a citrate buffer (pH 6.5) containing 0.1% of bovine serum albumin (hereinafter called "dissolving solution") and then administered to a group of 5-6 Wistar rats (80-90 g) at 80 μg/kg through their tail veins. Upon elapsed time of 30 minutes and 60 minutes, blood samples were collected from their abdominal descending aortas. The serum calcium concentrations were measured by atomic absorption spectrophotometry while the serum phosphorus concentrations were determined the method proposed by Goldenberg et al. [Clin Chem., 12, 871-882 (1966)] .

[2] = Serum phosphorus level lowering effect in rats (method of Goldenberg et al.); type: in vivo; conditions: 80 μg/kg through tail vein, Wistar rats; for drop of serum phosphorus concentration compared with control group: blood at 30 and 60 minutes, control = dissolving solution only; for serum phosphorus concentration compared with h-CGRP administered group: versus h-CGRP 80 μg/kg
Experimental: as §1

[3] = Stability in an aqueous solution; type: physicochemical
[4] = Isoelectric point (pI) of the purified peptide; type: physicochemical; conditions: purified product

stability in an aqueous solution [3] | pI [4] | SMILES | drop of serum calcium concentration compared with control group [1] | serum calcium concentration compared with h-CGRP administered group [1] | drop of serum phosphorus concentration compared with control group [2] | serum phosphorus concentration compared with h-CGRP administered group [2] | activity exhibiting time (serum calcium lowering) compared with h-CGRP ([1]; 30 and 60 minutes) | activity exhibiting time (serum phosphorus lowering) compared with h-CGRP ([2]; 30 and 60 minutes)
extremely good stability | ≥ 10.25 | CC(C)C[C@H](NC(=O)CNC(=O)[C@H](C)NC(=O)[C@H](CC(C)C)NC(=O)[C@H](CCCNC(=N)N)NC(=O)[C@H](Cc1c[nH]cn1)NC(=O)[C@@H](NC(=O)[C@@H](NC(=O)[C@@H]1CCCCCC(=O)N[C@@H](CC(=O)O)C(=O)N[C@@H]([C@@H](C)O)C(=O)N[C@@H](C)C(=O)N[C@@H]([C@@H](C)O)C(=O)N1)C(C)C)[C@@H](C)O)C(=O)N[C@@H](CC(C)C)C(=O)N[C@@H](CO)C(=O)N[C@@H](CCCNC(=N)N)C(=O)N[C@@H](CO)C(=O)NCC(=O)NCC(=O)N[C@H](C(=O)N[C@H](C(=O)N[C@@H](CCCCN)C(=O)N[C@@H](CC(N)=O)C(=O)N[C@@H](CC(N)=O)C(=O)N[C@@H](Cc1ccccc1)C(=O)N[C@H](C(=O)N1CCC[C@H]1C(=O)N[C@H](C(=O)N[C@@H](CC(N)=O)C(=O)N[C@H](C(=O)NCC(=O)N[C@@H](CO)C(=O)N[C@@H](CCCCN)C(=O)N[C@@H](C)C(=O)N[C@@H](Cc1ccccc1)C(N)=O)C(C)C)[C@@H](C)O)C(C)C)C(C)C)C(C)C [desalanyl-[Asu^2,7]-h-CGRP] | about 20% | dropped with significance | about 20% | dropped with significance |  | 
 | ≥ 10.25 | CC(C)C[C@H](NC(=O)CNC(=O)[C@H](C)NC(=O)[C@H](CC(C)C)NC(=O)[C@H](CCCNC(=N)N)NC(=O)[C@H](Cc1c[nH]cn1)NC(=O)[C@@H](NC(=O)[C@@H](NC(=O)[C@@H]1CSSCCC(=O)N[C@@H](CC(=O)O)C(=O)N[C@@H]([C@@H](C)O)C(=O)N[C@@H](C)C(=O)N[C@@H]([C@@H](C)O)C(=O)N1)C(C)C)[C@@H](C)O)C(=O)N[C@@H](CC(C)C)C(=O)N[C@@H](CO)C(=O)N[C@@H](CCCNC(=N)N)C(=O)N[C@@H](CO)C(=O)NCC(=O)NCC(=O)N[C@H](C(=O)N[C@H](C(=O)N[C@@H](CCCCN)C(=O)N[C@@H](CC(N)=O)C(=O)N[C@@H](CC(N)=O)C(=O)N[C@@H](Cc1ccccc1)C(=O)N[C@H](C(=O)N1CCC[C@H]1C(=O)N[C@H](C(=O)N[C@@H](CC(N)=O)C(=O)N[C@H](C(=O)NCC(=O)N[C@@H](CO)C(=O)N[C@@H](CCCCN)C(=O)N[C@@H](C)C(=O)N[C@@H](Cc1ccccc1)C(N)=O)C(C)C)[C@@H](C)O)C(C)C)C(C)C)C(C)C [desalanyl-deamino-h-CGRP] | about 20% | dropped with significance | about 20% | dropped with significance | prolonged | prolonged
